According to PubChem BioAssay AID256 (DTP/NCI, 2004):
Where “and” joins values, the source holds several entries; their conditions need not be identical. Equal entries are not always repeated. Inconclusive results and toxic doses are left out. How the source made its calls: active means survival T/C of 150% or more; inactive means T/C below 125% in these data.

Tested on: CD2F1 mice, L1210 leukemia ip, survival T/C
Assay: NCI In Vivo Anticancer Drug Screen. Data for tumor model L1210 Leukemia (intraperitoneal) in CD2F1 (CDF1) mice
Settings: higher = longer survival
Summary of the method: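 Compound-dosed mice with transplantable tumor versus matched vehicle controls; endpoint ratio T/C reported.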

Measured: T/C

CN1C(=O)[N+](C)(C)N=C1[O-]
inactive: endpoint: mean survival time, dose: 100.0 mg/kg/injection, schedule: Q04DX003 (ip), vehicle: saline 94 % of control | endpoint: mean survival time, dose: 200.0 mg/kg/injection, schedule: Q04DX003 (ip), vehicle: saline 97 % of control | endpoint: mean survival time, dose: 400.0 mg/kg/injection, schedule: Q04DX003 (ip), vehicle: saline 95 % of control

CN(N)c1nc(N)c(C#N)c(C#N)c1C#N
inactive: endpoint: mean survival time, dose: 50.0 mg/kg/injection, schedule: Q01DX001 (ip), vehicle: saline 97 % of control | endpoint: mean survival time, dose: 100.0 mg/kg/injection, schedule: Q01DX001 (ip), vehicle: saline 101 % of control | endpoint: mean survival time, dose: 200.0 mg/kg/injection, schedule: Q01DX001 (ip), vehicle: saline 101 % of control | endpoint: mean survival time, dose: 400.0 mg/kg/injection, schedule: Q01DX001 (ip), vehicle: saline 97 % of control

Cc1c(N)nc([C@H](CC(N)=O)NC[C@H](N)C(N)=O)nc1C(=O)N[C@H](C(=O)N[C@H](C)[C@@H](O)[C@H](C)C(=O)N[C@H](C(=O)NCCc1nc(-c2nc(C(=O)NCCC[S+](C)C)cs2)cs1)[C@@H](C)O)C(OC1OC(CO)C(O)C(O)C1OC1OC(CO)C(O)C(OC(N)=O)C1O)c1cnc[nH]1 (some centres not stated)
inactive: endpoint: mean survival time, dose: 2.0 mg/kg/injection, schedule: Q01DX009 (ip), vehicle: saline 103 % of control and 106 % of control | endpoint: mean survival time, dose: 2.0 mg/kg/injection, schedule: Q01DX009 (ip), vehicle: water 106 % of control | endpoint: mean survival time, dose: 4.0 mg/kg/injection, schedule: Q01DX009 (ip), vehicle: water 110 % of control | endpoint: mean survival time, dose: 8.0 mg/kg/injection, schedule: Q01DX009 (ip), vehicle: water 110 % of control | endpoint: mean survival time, dose: 12.0 mg/kg/injection, schedule: Q01DX009 (ip), vehicle: saline 117 % of control | endpoint: mean survival time, dose: 16.0 mg/kg/injection, schedule: Q01DX009 (ip), vehicle: water 108 % of control | endpoint: mean survival time, dose: 32.0 mg/kg/injection, schedule: Q01DX009 (ip), vehicle: saline 115 % of control and 104 % of control | endpoint: mean survival time, dose: 32.0 mg/kg/injection, schedule: Q01DX009 (ip), vehicle: water 103 % of control | endpoint: mean survival time, dose: 64.0 mg/kg/injection, schedule: Q01DX009 (ip), vehicle: saline 104 % of control | endpoint: median survival time, dose: 0.5 mg/kg/injection, schedule: Q01DX009 (ip), vehicle: saline 88 % of control | endpoint: median survival time, dose: 0.5 mg/kg/injection, schedule: Q03HX024 (ip), vehicle: saline 105 % of control | endpoint: median survival time, dose: 1.0 mg/kg/injection, schedule: Q01DX009 (ip), vehicle: saline 100 % of control and 108 % of control | endpoint: median survival time, dose: 1.0 mg/kg/injection, schedule: Q03HX016 (ip), vehicle: saline 104 % of control | endpoint: median survival time, dose: 1.0 mg/kg/injection, schedule: Q03HX024 (ip), vehicle: saline 105 % of control | endpoint: median survival time, dose: 2.0 mg/kg/injection, schedule: Q03HX008 (ip), vehicle: saline 109 % of control | endpoint: median survival time, dose: 2.0 mg/kg/injection, schedule: Q03HX016 (ip), vehicle: saline 104 % of control | endpoint: median survival time, dose: 2.0 mg/kg/injection, schedule: Q03HX024 (ip), vehicle: saline 104 % of control | endpoint: median survival time, dose: 4.0 mg/kg/injection, schedule: Q03HX008 (ip), vehicle: saline 104 % of control | endpoint: median survival time, dose: 4.0 mg/kg/injection, schedule: Q03HX016 (ip), vehicle: saline 97 % of control | endpoint: median survival time, dose: 4.0 mg/kg/injection, schedule: Q03HX024 (ip), vehicle: saline 104 % of control | endpoint: median survival time, dose: 8.0 mg/kg/injection, schedule: Q03HX008 (ip), vehicle: saline 107 % of control | endpoint: median survival time, dose: 8.0 mg/kg/injection, schedule: Q03HX016 (ip), vehicle: saline 104 % of control | endpoint: median survival time, dose: 8.0 mg/kg/injection, schedule: Q04DX003 (ip), vehicle: saline 107 % of control | endpoint: median survival time, dose: 8.0 mg/kg/injection, schedule: Q08DX002 (ip), vehicle: saline 105 % of control | endpoint: median survival time, dose: 16.0 mg/kg/injection, schedule: Q01DX001 (ip), vehicle: saline 103 % of control | endpoint: median survival time, dose: 16.0 mg/kg/injection, schedule: Q03HX008 (ip), vehicle: saline 103 % of control | endpoint: median survival time, dose: 16.0 mg/kg/injection, schedule: Q03HX016 (ip), vehicle: saline 101 % of control | endpoint: median survival time, dose: 16.0 mg/kg/injection, schedule: Q04DX003 (ip), vehicle: saline 109 % of control | endpoint: median survival time, dose: 16.0 mg/kg/injection, schedule: Q08DX002 (ip), vehicle: saline 105 % of control | endpoint: median survival time, dose: 32.0 mg/kg/injection, schedule: Q01DX001 (ip), vehicle: saline 98 % of control | endpoint: median survival time, dose: 32.0 mg/kg/injection, schedule: Q04DX003 (ip), vehicle: saline 101 % of control | endpoint: median survival time, dose: 32.0 mg/kg/injection, schedule: Q08DX002 (ip), vehicle: saline 102 % of control | endpoint: median survival time, dose: 64.0 mg/kg/injection, schedule: Q01DX001 (ip), vehicle: saline 98 % of control | endpoint: median survival time, dose: 64.0 mg/kg/injection, schedule: Q04DX003 (ip), vehicle: saline 104 % of control | endpoint: median survival time, dose: 64.0 mg/kg/injection, schedule: Q08DX002 (ip), vehicle: saline 107 % of control | endpoint: median survival time, dose: 128.0 mg/kg/injection, schedule: Q01DX001 (ip), vehicle: saline 105 % of control | endpoint: median survival time, dose: 128.0 mg/kg/injection, schedule: Q04DX003 (ip), vehicle: saline 115 % of control | endpoint: median survival time, dose: 128.0 mg/kg/injection, schedule: Q08DX002 (ip), vehicle: saline 97 % of control | endpoint: median survival time, dose: 256.0 mg/kg/injection, schedule: Q01DX001 (ip), vehicle: saline 107 % of control

CN(Cc1cnc2nc(N)nc(N)c2n1)c1ccc(C(=O)N[C@@H](CCC(=O)O)C(N)=O)cc1
inactive: endpoint: mean survival time, dose: 3.0 mg/kg/injection, schedule: Q01DX009 (ip), vehicle: sodium bicarbonate 98 % of control | endpoint: mean survival time, dose: 6.0 mg/kg/injection, schedule: Q01DX009 (ip), vehicle: sodium bicarbonate 100 % of control | endpoint: mean survival time, dose: 12.0 mg/kg/injection, schedule: Q01DX009 (ip), vehicle: sodium bicarbonate 111 % of control | endpoint: mean survival time, dose: 50.0 mg/kg/injection, schedule: Q01DX009 (ip), vehicle: sodium bicarbonate 114 % of control

Nc1c(C(=O)O)cnn1CCO
inactive: endpoint: mean survival time, dose: 50.0 mg/kg/injection, schedule: Q04DX003 (ip), vehicle: water 94 % of control | endpoint: mean survival time, dose: 100.0 mg/kg/injection, schedule: Q04DX003 (ip), vehicle: water 100 % of control | endpoint: mean survival time, dose: 200.0 mg/kg/injection, schedule: Q04DX003 (ip), vehicle: water 100 % of control | endpoint: mean survival time, dose: 400.0 mg/kg/injection, schedule: Q04DX003 (ip), vehicle: water 97 % of control and 100 % of control | endpoint: mean survival time, dose: 700.0 mg/kg/injection, schedule: Q04DX003 (ip), vehicle: water 89 % of control

BrCC12CCC1(CBr)COC2 (configuration not stated)
inactive: endpoint: mean survival time, dose: 100.0 mg/kg/injection, schedule: Q04DX003 (ip), vehicle: other 102 % of control | endpoint: mean survival time, dose: 200.0 mg/kg/injection, schedule: Q04DX003 (ip), vehicle: other 107 % of control | endpoint: mean survival time, dose: 400.0 mg/kg/injection, schedule: Q04DX003 (ip), vehicle: other 96 % of control

O=C(NCCSC(=O)Nc1ccccc1)Nc1ccccc1
inactive: endpoint: mean survival time, dose: 100.0 mg/kg/injection, schedule: Q01DX009 (ip), vehicle: saline with Tween-80 95 % of control | endpoint: mean survival time, dose: 200.0 mg/kg/injection, schedule: Q01DX009 (ip), vehicle: saline with Tween-80 94 % of control | endpoint: mean survival time, dose: 400.0 mg/kg/injection, schedule: Q01DX009 (ip), vehicle: saline with Tween-80 94 % of control

CC1(C)N=C(N)N=C(N)N1c1cccc(C(C#N)CCCc2ccccc2)c1 (configuration not stated)
inactive: endpoint: mean survival time, dose: 12.5 mg/kg/injection, schedule: Q01DX009 (ip), vehicle: Klucel (hydroxypropylcellulose) (HPC) 104 % of control | endpoint: mean survival time, dose: 25.0 mg/kg/injection, schedule: Q01DX009 (ip), vehicle: Klucel (hydroxypropylcellulose) (HPC) 104 % of control | endpoint: mean survival time, dose: 50.0 mg/kg/injection, schedule: Q01DX009 (ip), vehicle: Klucel (hydroxypropylcellulose) (HPC) 88 % of control

CC(=O)OCC(OC(C)=O)C1OC(OC2CCCCC2)C(OC(C)=O)C(OC(C)=O)C1OC(C)=O (configuration not stated)
inactive: endpoint: mean survival time, dose: 100.0 mg/kg/injection, schedule: Q01DX001 (ip), vehicle: saline with Tween-80 93 % of control | endpoint: mean survival time, dose: 200.0 mg/kg/injection, schedule: Q01DX001 (ip), vehicle: saline with Tween-80 98 % of control | endpoint: mean survival time, dose: 400.0 mg/kg/injection, schedule: Q01DX001 (ip), vehicle: saline with Tween-80 88 % of control
